For data set [1], the target named is T1, D-aspartate oxidase (Bos taurus, UniProt P31228).
T1 sequence (P31228 whole entry): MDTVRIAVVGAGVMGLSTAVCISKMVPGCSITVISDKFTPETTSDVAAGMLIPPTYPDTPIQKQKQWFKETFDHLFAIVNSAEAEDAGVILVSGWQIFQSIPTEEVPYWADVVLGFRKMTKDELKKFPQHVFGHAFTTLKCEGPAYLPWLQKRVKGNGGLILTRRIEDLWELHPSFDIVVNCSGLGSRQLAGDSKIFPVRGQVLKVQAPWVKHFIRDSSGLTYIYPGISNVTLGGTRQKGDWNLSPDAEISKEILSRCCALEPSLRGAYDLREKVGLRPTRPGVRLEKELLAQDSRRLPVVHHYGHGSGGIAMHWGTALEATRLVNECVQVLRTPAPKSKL
The data set is described as follows: Inhibition of bovine recombinant DASPO expressed in Escherichia coli preincubated for 15 mins by fluorescence assay.

A short description of data set [2]: Dissociation constant, pKa of the compound by dip probe absorption spectroscopy technique. It counts as physicochemical.
The nature of data set [3]: Octanol-water partition coefficient, log P of the neutral compound by pH-metric method. It counts as physicochemical.
The nature of data set [4]: Thermodynamic solubility of the compound in phosphate buffer at pH 7.4 after 24 hrs by HPLC analysis. To be noted: read-out: Therm_solubility. In kind it is physicochemical.
A short description of data set [5]: Kinetic solubility of the compound in 0.01 M phosphate buffered saline at pH 7.4 assessed as minimum solubility after 2 hrs. In kind it is physicochemical. To be noted: read-out: Kinetic_solubility.
Data set [6] can be described thus: Kinetic solubility of the compound in 0.01 M phosphate buffered saline at pH 7.4 assessed as maximum solubility after 2 hrs. It counts as physicochemical. To be noted: read-out: Kinetic_solubility.
The nature of data set [7]: Intrinsic clearance in human liver microsomes. In kind it is ADME, Microsome. A general note: Microsomes from liver hold many membrane-bound enzymes, among them those of drug oxidation.
Data set [8] is described as follows: Cmax in Swiss mouse brain at 10 mg/kg, po. In kind it is ADME, organism-based. Also on record: dose 10 mg/kg, route oral.
Data set [9] is described as follows: Oral bioavailability (0 to last) in Wistar rat plasma at 10 mg/kg. It counts as ADME, organism-based.
Data set [10] can be described thus: Oral bioavailability (0 to last) in Swiss mouse plasma at 10 mg/kg. In kind it is ADME, organism-based.
Data set [11] in a line: Tmax in Swiss mouse brain at 10 mg/kg, po. It counts as ADME, organism-based. Details: dose 10 mg/kg, route oral.
The nature of data set [12]: Volume of distribution in Wistar rat plasma at 1 mg/kg, iv. Also on record: dose 1 mg/kg, route intravenous. In kind it is ADME, organism-based.
Data set [13] can be described thus: Volume of distribution in Swiss mouse plasma at 1 mg/kg, iv. It counts as ADME, organism-based. Also on record: dose 1 mg/kg, route intravenous.
Data set [14] can be described thus: Plasma clearance in Wistar rat plasma at 1 mg/kg, iv. Details: dose 1 mg/kg, route intravenous. It counts as ADME, organism-based.
The nature of data set [15]: Plasma clearance in Swiss mouse plasma at 1 mg/kg, iv. It counts as ADME, organism-based. Also on record: dose 1 mg/kg, route intravenous.
Data set [16] deals with T2, D-amino-acid oxidase (Homo sapiens, UniProt P14920).
Target sequence in this assay (P14920 whole entry, looked up): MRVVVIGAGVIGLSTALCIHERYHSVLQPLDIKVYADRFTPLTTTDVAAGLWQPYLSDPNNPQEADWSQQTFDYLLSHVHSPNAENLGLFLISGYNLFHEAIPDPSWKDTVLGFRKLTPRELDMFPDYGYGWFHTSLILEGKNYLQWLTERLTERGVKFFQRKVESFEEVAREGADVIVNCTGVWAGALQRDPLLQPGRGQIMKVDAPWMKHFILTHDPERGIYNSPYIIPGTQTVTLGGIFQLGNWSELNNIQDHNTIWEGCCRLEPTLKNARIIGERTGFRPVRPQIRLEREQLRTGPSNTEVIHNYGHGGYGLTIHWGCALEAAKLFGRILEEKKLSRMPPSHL
A short description of data set [17]: Cmax in Wistar rat brain at 10 mg/kg, po. In kind it is ADME, organism-based. Also on record: dose 10 mg/kg, route oral.
Data set [18] can be described thus: Tmax in Wistar rat brain at 10 mg/kg, po. In kind it is ADME, organism-based. Details: dose 10 mg/kg, route oral.
Data set [19] concerns the target T2, D-amino-acid oxidase. The data set is described as follows: Inhibition of human recombinant DAAO expressed in Escherichia coli assessed as H2O2 production from D-serine degradation after 30 mins by fluorescence assay.
Target sequence in this assay (P14920 whole entry): as the sequence (P14920 whole entry, looked up) above
Data set [20] addresses T2, D-amino-acid oxidase. The data set is described as follows: Inhibition of human DAAO.
Target sequence in this assay (P14920 whole entry): as the sequence (P14920 whole entry, looked up) above
For data set [21], the target named is T2, D-amino-acid oxidase. The data set is described as follows: Binding affinity to human recombinant DAAO by isothermal titration calorimeter analysis.
Target sequence in this assay (P14920 whole entry): as the sequence (P14920 whole entry, looked up) above
Data set [22] deals with T2, D-amino-acid oxidase. The data set is described as follows: Binding affinity to human recombinant DAAO by kinetic study scintillation proximity assay. A general note: In a scintillation proximity assay essentially only radioactivity close to the scintillant gives light.
Target sequence in this assay (P14920 whole entry): as the sequence (P14920 whole entry, looked up) above
Data set [23] addresses T2, D-amino-acid oxidase. In words: Binding affinity to human recombinant DAAO by steady state study scintillation proximity assay.
Target sequence in this assay (P14920 whole entry): as the sequence (P14920 whole entry, looked up) above
The nature of data set [24]: Apparent permeability across apical to basolateral side in human Caco2 cells by LC-MS/MS analysis. It counts as ADME, cell-based. To be noted: Caco-2.
Data set [25] can be described thus: Apparent permeability from apical to basolateral side of MDCK cells expressing MDR1 by LC-MS/MS analysis. It counts as ADME, cell-based, Canis lupus familiaris. To be noted: dog.
The subject of data set [26] is Brain. In words: AUC (0 to last) in Wistar rat brain at 10 mg/kg, po. Details: dose 10 mg/kg, route oral, time 0 - last. The settings on record: in vivo. It counts as ADME, organism-based.
Data set [27] deals with Brain. The data set is described as follows: AUC (0 to last) in Swiss mouse brain at 10 mg/kg, po. It counts as ADME, organism-based. Also on record: time 0 - last, dose 10 mg/kg, route oral. The settings on record: in vivo.
A short description of data set [28]: Ratio of drug level (0 to last) in brain to plasma in Wistar rat at 10 mg/kg, po. It counts as ADME, organism-based. Details: dose 10 mg/kg, route oral. The settings on record: brain and plasma, read-out: BPR.
A short description of data set [29]: Ratio of drug level (0 to last) in brain to plasma in Swiss mouse at 10 mg/kg, po. Details: dose 10 mg/kg, route oral. It counts as ADME, organism-based. To be noted: brain and plasma, read-out: BPR.
The nature of data set [30]: Terminal half life in Wistar rat brain at 10 mg/kg, po. It counts as ADME, organism-based. Details: dose 10 mg/kg, route oral. The settings on record: read-out: beta t1/2 (converted).
A short description of data set [31]: Terminal half life in Swiss mouse brain at 10 mg/kg, po. It counts as ADME, organism-based. Details: dose 10 mg/kg, route oral. To be noted: read-out: beta t1/2 (converted).

≈ marks a conversion by molar mass, not a printed value. Where only a bound is given, the exact number is not on record here.

By IC50 is commonly meant the concentration that inhibits the measured activity by half. Broadly, the pKa is the negative logarithm of the acid dissociation constant. Usually logP stands for the decadic logarithm of the partition coefficient of the neutral form, usually between octanol and water. The low end stands for lower lipophilicity, the high end for higher lipophilicity. In general, microsomal CLint refers to the rate of metabolic loss divided by the concentration. A word on the Cmax: it is the peak of the concentration-time curve. By bioavailability is commonly meant the share of a dose that reaches the circulation, judged against a reference dose that is usually intravenous. The low end stands for poor availability, the high end for good availability. In general, Tmax refers to the time at which the peak concentration occurs. The Vd is a proportionality between amount in the body and measured concentration, not a real space. A high value points to extensive tissue distribution. A word on the clearance: it is the volume of plasma or blood freed of the substance per unit of time. Read a high clearance as efficient removal. The term Kd denotes the free concentration of one partner at which half of the binding sites on the other are occupied at equilibrium, for simple one-to-one binding. Broadly, the Papp A→B is the apparent permeability from the apical to the basolateral side of a cell layer.

Turning to `O=c1[nH]c2cccc(Cl)c2cc1O`, in [1], the IC50 is greater than 10000 nM. The compound further showed a pKa in [2] of 7.6. In data set [3], the logP came out at 2.57. Besides, the solubility thermodynamic at 24 h in [4] came out at 31 µM (≈ 6.06 µg/mL). Besides, the solubility kinetic at 2 h in data set [5] is 17 µM (≈ 3.33 µg/mL); in [6], 55 µM (≈ 10.8 µg/mL). Moreover, the microsomal CLint in [7] was 308 µL/min/mg. Also, the Cmax in data set [8] is 11.7 ng/mL. Also, the bioavailability is 1.4% in [9] and 0.65% in data set [10]. In addition, in data set [11], the Tmax worked out at 15 min. Further, the distribution volume (Vd) in data set [12] and in data set [13] was 0.3 L/kg in each case. The figures for the clearance in data set [14] and in [15] were 30 mL/min/kg and 44 mL/min/kg, respectively. The T1/2 in [16] is greater than 120 min.

In the case of `O=c1[nH]c2ccc(F)c(Cl)c2cc1O`, the IC50 in data set [1] was greater than 10000 nM. In data set [2], this compound registered a pKa of 7.33. For the same compound, the logP in [3] turned out to be 2.7. Moreover, in data set [4], the solubility thermodynamic at 24 h was found to be 71 µM (≈ 15.2 µg/mL). For the same compound, the values for the solubility kinetic at 2 h in [5] and in data set [6] were 3 µM (≈ 0.641 µg/mL) and 65 µM (≈ 13.9 µg/mL), respectively. Further, the microsomal CLint in data set [7] was determined as 183 µL/min/mg. For the same compound, the Cmax in [17] was 17.9 ng/mL; in [8] it was 12.1 ng/mL. The bioavailability in data set [9] is 2%; in data set [10], 3%. Besides, the Tmax in data set [18] turned out to be 30 min; in [11], 15 min. Also, the values for the Vd in data set [12] and in [13] were 0.3 L/kg and 0.5 L/kg, respectively. Further, the clearance in data set [14] is 28 mL/min/kg; in data set [15], 45 mL/min/kg.

For the compound `O=C(O)c1cc2sccc2[nH]1`, the IC50 in [19] is 11.9 nM; in data set [20], 145 nM; in data set [1], greater than 10000 nM. For the same compound, the Kd in data set [21] came out at 19 nM; in data set [22], 6 nM; in data set [23], 33 nM. For the same compound, in data set [2], the pKa came out at 3.88. Moreover, the logP in data set [3] stood at 2.11. For the same compound, in data set [4], the solubility thermodynamic at 24 h was greater than 460 µM. Also, the solubility kinetic at 2 h in data set [5] is 100 µM (≈ 16.7 µg/mL); in data set [6], greater than 100 µM. In addition, the Papp A→B in data set [24] amounted to 47 ×10⁻⁶ cm/s; in data set [25], 6 ×10⁻⁶ cm/s. Also, the Cmax in data set [17] was found to be 648 ng/mL; in data set [8] it was 336 ng/mL. In addition, the AUClast in data set [26] amounted to 1940 ng·h/mL; in data set [27], 302 ng·h/mL. Besides, the Kp in data set [28] was determined as 0.05; in data set [29] it was 0.06. Moreover, the values for the bioavailability in data set [9] and in data set [10] were 100% and 56%, respectively. Further, the Tmax in data set [18] came out at 60 min; in data set [11] it was 15 min. For the same compound, the half-life in data set [30] is 120 min; in data set [31], 60 min. Besides, the Vd amounted to 2.1 L/kg in [12] and 0.4 L/kg in data set [13]. The clearance in data set [14] came out at 9 mL/min/kg; in data set [15], 21 mL/min/kg. In data set [16], the T1/2 was determined as 10 min.

The record behind these values is ChEMBL document CHEMBL1828557, “Biophysical and physicochemical methods differentiate highly ligand-efficient human D-amino acid oxidase inhibitors” (Eur J Med Chem, 2011).
